Test system: dithranol-induced mouse ear inflammation (edema)
Experiment: Dithranol-induced mouse ear inflammation test
Format: in vivo
Conditions: Swiss male mice, 10 per group; 20 μL solution painted on left ear at Time 0 and +16 h; dithranol 30 μg in 20 μL acetone at +0.5 h; 6 mm ear disks weighed at +24 h
Procedure: Dithranol is a known inflammatory agent, which induces inflammatory response by releasing free radicals.
The modulatory effects of the compositions of the present invention were tested using the dithranol-induced mouse ear inflammation test described in “Methods in Molecular Biology, 2003, Vol 225; 129-137”, and in “Br. J. Pharmacol. 1991, 104; 990-994”.
Swiss male mice (10 per group) of 6 to 8 weeks old; weighing 28-32 g each; were used. Mice had free access to food and water.
The compounds of the invention were dissolved in water or ethanol (depending on their solubility). 20 μL of the solution containing the compound of the invention, or their combinations, was painted on the left ear (back and front; 10+10 μL) using a Hamilton syringe within 30 seconds (Time 0) The compound tested, and their combinations, are reported in the following
A similar volume of vehicle (water or ethanol) was applied to the other ear (control ear).
After 30 minutes (Time+0.5 h) the irritant, dithranol, 30 μg in 20 μL of acetone was painted on the left ear (back and front, 10+10 μL).
A similar volume of acetone was applied to the other ear.
A group of mice treated only with dithranol (no treatment with the compounds of the invention) was present (control group).
An electric hair dryer for a few seconds to evaporate the solvent was used.
The compounds of the invention were administered again 16 hours from the first treatment (Time+16 h).
After 24 hours from the first treatment (Time+24 h) the animals were killed with an overdose of diethyl ether and the ears were cut off.
A disk from the middle part of each ear was cut off, using a sharp punch 6 mm in diameter.
The disks samples were weighted on a suitable balance, and the extent of the edema (as percentage of inhibition) was calculated according to the formula reported on page 991, right column, of “Br. J. Pharmacol. 1991, 104; 990-994” mentioned above.

Row | Compound | % Inhibit. (extent of the edema as percentage of inhibition) [%]
1 | C[N+](C)(C)C[C@H](O)CC(=O)[O-] [L-carnitine] | 9
2 | O=C(O)CCCC[C@@H]1SC[C@@H]2NC(=O)N[C@@H]21 [Biotin] | 6
3 | Vitamin E | 8
4 | Vitamin B12 | 8
5 | CC(C)=CCC[C@](C)(O)C1CC=C(C)CC1 (stereo partly drawn) [Bisabolol] | 6
6 | CC(C)(CO)[C@@H](O)C(=O)NCCCO [Panthenol] | 7
